Experimental data as given in ChEMBL document CHEMBL1201862, “PubChem BioAssay data set” (2004).
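These data come from cells grown in 96-well plates and exposed to compound for 48 hours at five concentrations. The concentration for 50% growth inhibition is given as GI50.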 Activity calls are given as the source filed them. No stated cut-off is given here; in the data, active = GI50 up to about 1.1 µM and inactive = higher.

Experiments:
Assay in all cases: NCI-60 cell line screen, 48 h
KM12 = system: KM12
SK-MEL-2 = system: SK-MEL-2
CCRF-CEM = system: CCRF-CEM
NCI-H522 = system: NCI-H522
MDA-MB-231 = system: MDA-MB-231
SNB-75 = system: SNB-75
MDA-MB-435 = system: MDA-MB-435
M14 = system: M14
A498 = system: A498
SF-295 = system: SF-295
OVCAR-3 = system: OVCAR-3
UO-31 = system: UO-31
SF-268 = system: SF-268
DU-145 = system: DU-145
K562 = system: K562
MDA-N = system: MDA-N
TK-10 = system: TK-10
SR = system: SR
U-251 = system: U-251
SNB-19 = system: SNB-19

Structure (SMILES)	GI50 (KM12)	GI50 (SK-MEL-2)	GI50 (CCRF-CEM)	GI50 (NCI-H522)	GI50 (MDA-MB-231)	GI50 (SNB-75)	GI50 (MDA-MB-435)	GI50 (M14)	GI50 (A498)	GI50 (SF-295)	GI50 (OVCAR-3)	GI50 (UO-31)	GI50 (SF-268)	GI50 (DU-145)	GI50 (K562)	GI50 (MDA-N)	GI50 (TK-10)	GI50 (SR)	GI50 (U-251)	GI50 (SNB-19)
COC(=O)c1cc2c(cc1CC(Cc1ccc3c(c1)CCCC3)C(=O)OC)CCCC2 (stereo unspecified)	50.5 µM (inactive)	> 100 µM (inactive)	29.7 µM (inactive)	54.5 µM (inactive)	68.4 µM (inactive)	64.4 µM (inactive)	40.6 µM (inactive)	88.3 µM (inactive)	> 100 µM (inactive)	76 µM (inactive)	44.6 µM (inactive)	> 100 µM (inactive)	29 µM (inactive)	> 100 µM (inactive)	40.1 µM (inactive)	65.3 µM (inactive)	95.3 µM (inactive)	97.7 µM (inactive)	41.7 µM (inactive)	> 100 µM (inactive)
CC1CC[C@@]2(OC1)OC1C[C@H]3[C@@H]4CC[C@H]5CC(OC6OC(CO)C(OC7OC(CO)C(O)C(O)C7OC7OC(CO)C(O)C(O)C7O)C(O)C6O)CCC5(C)[C@H]4CCC3(C)C1[C@@H]2C (stereo partly specified)	3.33 µM (inactive)	2.38 µM (inactive)	1.35 µM (inactive)	1.63 µM (inactive)	0.929 µM (active)	2.59 µM (inactive)	2.65 µM (inactive)	3.34 µM (inactive)	1.52 µM (inactive)	4.26 µM (inactive)	1.8 µM (inactive)	0.993 µM (active)	2.75 µM (inactive)	0.975 µM (active)	2.21 µM (inactive)	2.86 µM (inactive)	1.61 µM (inactive)	1.81 µM (inactive)	1.1 µM (active)	3.37 µM (inactive)
CCCC1CC(=O)NC(=O)C1C(=O)OC(C)(C)C (stereo unspecified)	> 100 µM (inactive)	> 100 µM (inactive)	–	> 100 µM (inactive)	> 100 µM (inactive)	> 100 µM (inactive)	> 100 µM (inactive)	–	> 100 µM (inactive)	> 100 µM (inactive)	> 100 µM (inactive)	> 100 µM (inactive)	> 100 µM (inactive)	> 100 µM (inactive)	> 100 µM (inactive)	> 100 µM (inactive)	> 100 µM (inactive)	64.7 µM (inactive)	> 100 µM (inactive)	> 100 µM (inactive)
O=C(O)c1ccc(S(=O)(=O)c2ccccc2[N+](=O)[O-])cc1	> 10 µM (inactive)	> 10 µM (inactive)	> 10 µM (inactive)	> 10 µM (inactive)	> 10 µM (inactive)	> 10 µM (inactive)	> 10 µM (inactive)	> 10 µM (inactive)	> 10 µM (inactive)	> 10 µM (inactive)	> 10 µM (inactive)	–	> 10 µM (inactive)	> 10 µM (inactive)	> 10 µM (inactive)	> 10 µM (inactive)	> 10 µM (inactive)	> 10 µM (inactive)	> 10 µM (inactive)	> 10 µM (inactive)
O=C(Nn1c(-c2ccccc2)nc2ccccc2c1=O)c1ccccc1O	60.1 µM (inactive)	–	25.2 µM (inactive)	32.9 µM (inactive)	53.5 µM (inactive)	> 100 µM (inactive)	49.4 µM (inactive)	51.1 µM (inactive)	71.6 µM (inactive)	63.2 µM (inactive)	30.3 µM (inactive)	36.7 µM (inactive)	45.7 µM (inactive)	49.1 µM (inactive)	54 µM (inactive)	66.2 µM (inactive)	75.9 µM (inactive)	32.8 µM (inactive)	44.5 µM (inactive)	45 µM (inactive)
